Patent US7491728B2, “Pyrimidinone compounds as calcilytics” (SmithKline Beecham Corp., priority 2004, dated 2009)

Assay: Bolus i.v. injection in normal conscious rats: plasma PTH and ionized calcium levels
Format: in vivo, male Sprague-Dawley rats
Description: FIG. 1 is a graph which depicts the effect of bolus i.v. injection of the compound of Example 9 on plasma PTH levels in normal rats.
5-Ethyl-3-[2-(2-fluoro-phenyl)-ethyl]-2-(2-hydroxy-phenyl)-6-methyl-3H-pyrimidin-4-one (1 or 3 μmol/kg) or vehicle was administered by intravenous injection over about 15 seconds to normal conscious male Sprague-Dawley rats with chronic indwelling arterial and venous catheters. Arterial blood samples were collected at 30 min and immediately before, and at 1, 5, 10, and 30 min after the start of the injection for measurement of the levels of parathyroid hormone (PTH) and ionized calcium (Ca^2+) in plasma. PTH was measured using a specific rat PTH (1-84) ELISA (Immutopics, San Clemente, Calif.). […] Plasma PTH levels had returned to pre-dose levels by 10 min after the injection (FIG. 1).

CCc1c(C)nc(-c2ccccc2O)n(CCc2ccccc2F)c1=O [Example 9, 5-Ethyl-3-[2-(2-fluoro-phenyl)-ethyl]-2-(2-hydroxy-phenyl)-6-methyl-3H-pyrimidin-4-one]
effect on plasma PTH levels (1 or 3 μmol/kg i.v. over about 15 seconds, normal conscious male Sprague-Dawley rats, rat PTH (1-84) ELISA, FIG. 1): rapid, but transient dose-related increase | time after injection at which plasma PTH levels were maximal (1 or 3 μmol/kg i.v., rats): 1 min | time after injection by which plasma PTH levels had returned to pre-dose levels (1 or 3 μmol/kg i.v., rats): ≤ 10 min | changes in plasma Ca2+ levels (1 or 3 μmol/kg i.v., rats, samples up to 30 min after injection (not shown)): no consistent changes
